Activity calls are given as the source filed them. No cut-off for these calls is given here.
Assays:
[1] = Metabolic stability in rat plasma at 1 uM and measured upto 24 hrs by LC-MS/MS analysis; type: ADME, cell-free
MDA-MB-231 [2] = experiment: Induction of ferroptosis in human MDA-MB-231 cells with assessed as decrease in GPX4 protein expression level at 5 to 20 nM incubated for 8 hrs by Western blot analysis; type: functional, cell-based; conditions: dose 5-20 nM
[3] = Toxicity in immunodeficient BALB/c mouse xenografted with human MDA-MB-231 cells assessed as body weight change at 5 to 20 mg/kg, ip for 21 days; type: organism-based; conditions: in vivo, 504 h, dose 5-20 mg/kg, time 21 day
MDA-MB-231 [4] = experiment: Antiproliferative activity against human MDA-MB-231 cells assessed as inhibition of cell viability at 1 uM incubated for 72 hrs by MTT assay; type: functional, cell-based
HT-29 = experiment: Antiproliferative activity against human HT-29 cells assessed as inhibition of cell viability at 1 uM incubated for 72 hrs by MTT assay; type: functional, cell-based
MDA-MB-231 [5] = experiment: Induction of ferroptosis-mediated morphological changes in human MDA-MB-231 cells assessed as change in nuclear morphology at 20 nM incubated for 6 hrs by TEM analysis; type: functional, cell-based
MDA-MB-231 [6] = experiment: Inhibition of colony formation in human MDA-MB-231 cells at 5 to 20 nM incubated for 14 days by crystal violet staining based assay; type: functional, cell-based; conditions: dose 5-20 nM, time 14.0 day
[7] = Toxicity in immunodeficient BALB/c mouse xenografted with human MDA-MB-231 cells assessed as morphological changes in lung at 20 mg/kg, ip for 21 days by H and E staining based microscopy; type: organism-based; conditions: in vivo, 504 h, time 21 day
[8] = Toxicity in immunodeficient BALB/c mouse xenografted with human MDA-MB-231 cells assessed as morphological changes in spleen at 20 mg/kg, ip for 21 days by H and E staining based microscopy; type: organism-based; conditions: in vivo, 504 h, time 21 day
MDA-MB-231 [9] = experiment: Induction of ferroptosis in human MDA-MB-231 cells assessed as cell viability at 1 uM incubated for 72 hrs in presence of glutathione by MTT assay; type: functional, cell-based
MDA-MB-231 [10] = experiment: Antitumor activity against human MDA-MB-231 cells xenografted in immunodeficient BALB/c mouse assessed as tumor growth inhibition at 5 mg/kg,ip for 21 days consecutively every day; type: functional; conditions: MDA-MB-231, 504 h, time 21 day, read-out: TGI
[11] = Toxicity in immunodeficient BALB/c mouse assessed as change in CK level at 20 mg/kg, ip for 14 days by biochemical analysis; type: organism-based; conditions: in vivo, 336 h, time 14 day
MCF-10A = experiment: Cytotoxicity against human MCF-10A cells assessed as inhibition of cell viability at 1 uM incubated for 72 hrs by MTT assay; type: toxicity, cell-based
MDA-MB-231 [12] = experiment: Induction of ferroptosis in human MDA-MB-231 cells assessed as cell viability incubated for 72 hrs in presence of ferroptosis inhibitor, ferrostatin-1 by MTT assay; type: functional, cell-based; conditions: MDA-MB-231, 72 h
MDA-MB-231 [13] = experiment: Induction of ferroptosis in human MDA-MB-231 cells assessed as cell viability at 1 uM incubated for 72 hrs in presence of deferoxamine by MTT assay; type: functional, cell-based
MDA-MB-231 [14] = experiment: Induction of ferroptosis in human MDA-MB-231 cells assessed as increase in intracellular lipid peroxidase by measuring decrease in red fluorescence intensity at 5 to 20 nM incubated for 8 hrs by C11-BODIPY-581/591 staining based confocal laser microscopy; type: functional, cell-based; conditions: dose 5-20 nM
MDA-MB-231 [15] = experiment: Induction of ferroptosis in human MDA-MB-231 cells assessed as cell viability incubated for 72 hrs in presence of necrosis inhibitor, necrostatin-1 by MTT assay; type: functional, cell-based; conditions: MDA-MB-231, 72 h
K562 = experiment: Antiproliferative activity against human K562 cells assessed as inhibition of cell viability at 1 uM incubated for 72 hrs by MTT assay; type: functional, cell-based
[16] = target: T1, Phospholipid hydroperoxide glutathione peroxidase GPX4 (Homo sapiens, UniProt P36969); experiment: Covalent inhibition of GPX4 (unknown origin) assessed as inhibition constant incubated for 30 to 90 mins in presence of glutathione, glutathione reductase and NADPH by microplate reader analysis
T1 sequence (P36969 whole entry): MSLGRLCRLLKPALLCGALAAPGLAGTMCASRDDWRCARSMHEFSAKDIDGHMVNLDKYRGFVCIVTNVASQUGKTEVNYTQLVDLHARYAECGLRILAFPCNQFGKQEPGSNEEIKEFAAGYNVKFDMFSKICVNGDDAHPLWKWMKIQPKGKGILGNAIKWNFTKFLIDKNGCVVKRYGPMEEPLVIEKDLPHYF

HeLa = experiment: Antiproliferative activity against human HeLa cells assessed as inhibition of cell viability at 1 uM incubated for 72 hrs by MTT assay; type: functional, cell-based
MDA-MB-231 [17] = experiment: Induction of ferroptosis in human MDA-MB-231 cells assessed as increase in intracellular ROS accumulation by measuring green fluorescence intensity at 5 to 20 nM incubated for 8 hrs by DCFH-DA staining based confocal laser microscopy; type: functional, cell-based; conditions: dose 5-20 nM
MDA-MB-231 [18] = experiment: Induction of ferroptosis in human MDA-MB-231 cells assessed as increase in intracellular lipid peroxidase by measuring increase in green fluorescence intensity at 5 to 20 nM incubated for 8 hrs by C11-BODIPY-581/591 staining based confocal laser microscopy; type: functional, cell-based; conditions: dose 5-20 nM
[19] = Toxicity in immunodeficient BALB/c mouse xenografted with human MDA-MB-231 cells assessed as morphological changes in liver at 20 mg/kg, ip for 21 days by H and E staining based microscopy; type: organism-based; conditions: in vivo, 504 h, time 21 day
[20] = Selectivity ratio, ratio of IC50 for Induction of ferroptosis in human MDA-MB-231 cells assessed as reduction in cell viability in presence of ferroptosis inhibitor, ferrostatin-1 to IC50 for antiproliferative activity against human MDA-MB-231 cells; type: functional
MDA-MB-231 [21] = experiment: Induction of ferroptosis in human MDA-MB-231 cells assessed as increase in intracellular ROS accumulation by measuring green fluorescence intensity at 20 nM incubated for 8 hrs in presence of ferroptosis inhibitor, ferrostatin-1 by DCFH-DA staining based confocal laser microscopy; type: functional, cell-based
4T1 = experiment: Antiproliferative activity against mouse 4T1 cells assessed as inhibition of cell viability at 1 uM incubated for 72 hrs by MTT assay; type: functional, cell-based
MDA-MB-231 [22] = experiment: Induction of ferroptosis in human MDA-MB-231 cells with assessed as change in FTH1 protein expression level at 5 to 20 nM incubated for 8 hrs in presence of ferroptosis inhibitor, ferrostatin-1 by Western blot analysis; type: functional, cell-based; conditions: dose 5-20 nM
MDA-MB-231 [23] = experiment: Induction of ferroptosis in human MDA-MB-231 cells with assessed as decrease in FTH1 protein expression level at 5 to 20 nM incubated for 8 hrs by Western blot analysis; type: functional, cell-based; conditions: dose 5-20 nM
MDA-MB-231 [24] = experiment: Induction of ferroptosis in human MDA-MB-231 cells assessed as cell viability incubated for 72 hrs in presence of apoptosis inhibitor, Z-VAD-FMK by MTT assay; type: functional, cell-based; conditions: MDA-MB-231, 72 h
MDA-MB-231 [25] = experiment: Induction of ferroptosis in human MDA-MB-231 cells assessed as cell viability at 1 uM incubated for 72 hrs in presence of ferroptosis inhibitor, ferrostatin-1 by MTT assay; type: functional, cell-based
MDA-MB-231 [26] = experiment: Induction of ferroptosis in human MDA-MB-231 cells assessed as cell viability at 1 uM incubated for 72 hrs in presence of necrosis inhibitor, necrostatin-1 by MTT assay; type: functional, cell-based

Row | Compound | Stability [1] | Activity (MDA-MB-231 [2]) | Activity [3] | Activity (MDA-MB-231 [4]) | Activity (HT-29) | Activity (MDA-MB-231 [5]) | inhibition (MDA-MB-231 [6]) | Activity [7] | Activity [8] | Activity (MDA-MB-231 [9]) | inhibition in vivo at 5 mg/kg (MDA-MB-231 [10]) | Activity [11] | Activity (MCF-10A) | IC50 (MDA-MB-231 [12]) | Activity (MDA-MB-231 [13]) | Activity (MDA-MB-231 [14]) | IC50 (MDA-MB-231 [15]) | Activity (K562) | Ki [16] | Activity (HeLa) | also measured
1 | COc1cc(N(C(=O)CBr)c2ccc3c(c2)OCCO3)cc(OC)c1F | Stable | Active | Non-Toxic | Active | inactive | inactive | Dose-Dependent Effect | Non-Toxic | Non-Toxic | Active | 18.9% | Toxic | Non-Toxic | 1750 nM | Active | Dose-Dependent Effect | 25 nM | inactive | 590 nM | inactive | Activity (MDA-MB-231 [17]): Dose-Dependent Effect; Activity (MDA-MB-231 [18]): Dose-Dependent Effect; Activity [19]: Non-Toxic; Ratio IC50 [20]: 218.8; Activity (MDA-MB-231 [21]): inactive; Activity (4T1): Active; Activity (MDA-MB-231 [22]): inactive; Activity (MDA-MB-231 [23]): Active; IC50 (MDA-MB-231 [24]): 30 nM; Activity (MDA-MB-231 [25]): Active; Activity (MDA-MB-231 [26]): inactive
2 | COc1cc(N(C(=O)CCl)c2ccc3c(c2)OCCO3)cc(OC)c1F | Stable | Active | Non-Toxic | Active | inactive | inactive | Dose-Dependent Effect | Non-Toxic | Non-Toxic | Active | 50.4% | Toxic | Non-Toxic | 2570 nM | Active | Dose-Dependent Effect | 22 nM | inactive | 630 nM | inactive | Activity (MDA-MB-231 [17]): Dose-Dependent Effect; Activity (MDA-MB-231 [18]): Dose-Dependent Effect; Activity [19]: Non-Toxic; Ratio IC50 [20]: 249.5; Activity (MDA-MB-231 [21]): inactive; Activity (4T1): Active; Activity (MDA-MB-231 [22]): inactive; Activity (MDA-MB-231 [23]): Active; IC50 (MDA-MB-231 [24]): 31 nM; Activity (MDA-MB-231 [25]): Active; Activity (MDA-MB-231 [26]): inactive

Source: ChEMBL document CHEMBL5346969 (J Med Chem, 2023)
